Measurements reported in patent US20240158430A1, “NOVEL COMPOUND OR SALT THEREOF, AND ANTITUMOR ACTIVATOR CONTAINING SAME AS ACTIVE INGREDIENT” (AKITA UNIVERSITY, priority 2021, published 2024).

Key:
fatty acid synthetase = assay: Influence on fatty acid synthetase, ELISA; type: cell-based, Human; details: 4 μM vs control group
Protocol: (§1) The influence of GO-Y199 on NF-kB (p65) was investigated. The method is as follows. 3×10^6 cells of the HCT116 cell line were added to a 10-cm plate, 2 μM of GO-Y199 was added after 24 hours, the cells were collected after 24 hours, embedded in iPGell (GenOStaff), and fixed in formalin, paraffin blocks were then prepared, and immuno-histochemistry was performed with an anti-NF-kB (p65) antibody. In addition, 2 μM and 5 μM of GO-Y199 were added, lysates were collected after 24 hours, and an expression level of NF-kB (p65) was analyzed using an ELISA-plate (NF-kBp65 (pS536) SimpleStep-ELISA-kit, Abcam). An amount of protein was corrected by the absorbance of A 280 nm. The upper part of FIG. 14 indicates photographs of the control group and the GO-Y199 (2 μM)-added group after 24 hours. The lower part of FIG. 14 indicates results of the t-test of these groups after 24 hours. FIG. 15 indicates the comparison results of the NF-kB inhibitory effect of GO-Y199 (2 μM, 5 μM)-added groups with respect to the control group.
The influence of GO-Y199 on fatty acid synthetase was investigated. The method is as described above. Protein quantification was performed using a Human Fatty acid synthase ELISA Kit (MyBioSource). FIG. 19 indicates the comparison result of the fatty acid synthetase inhibitory effect of the GO-Y199 (4 μM)-added group with respect to the control group.

[1] = tested on: breast cancer cell line HCC38; assay: Cell growth inhibitory activity, HCC38; type: cell-based
Protocol: [The source words this procedure for another cell line and reports this cell line under the same test.] (§2) The cell growth inhibitory activity against a colorectal cancer cell line HCT116 was measured. As an index of cell growth inhibitory activity, a concentration at which cell growth was inhibited by 50% as compared with a control (IC50) was used. The method is as follows. HCT116 was added to a 6-well plate by 5×10^4, compounds having various concentrations were added after 24 hours, and the number of cells was counted after 72 hours of culture. As the control, DMSO was used in an amount equal to the amount added in accordance with the addition concentration of the highest-concentration compound. The number of cells at each concentration relative to the control was expressed as a percentage.
(§3) The method is as described above.

[2] = tested on: colorectal cancer cell line HT29; assay: Cell growth inhibitory activity, HT29; type: cell-based; details: Table 4; 72 hours
Turbidity measurement = type: physicochemical
Protocol: The turbidity of various compounds was measured. The method is as follows. […] Curcumin was cloudy while GO-Y199 was clear. The solubility was measured with a turbidimeter (WZB-170 Portable Turbidimeter available from REX). The turbidity of the compound was corrected for concentration.
Subsequently, GO-Y206 and curcumin were adjusted to final concentrations of 1.25 μM and 5.00 μM, respectively, and their turbidities were measured.

[3] = tested on: malignant pleural mesothelioma cell line MSTO211H; assay: Cell growth inhibitory activity, MSTO211H; type: cell-based; details: Table 8
Protocol: as §2, with “percentage. In Table 3, the turbidities of the compounds are also indicated.” for “percentage.”
GO-Y198, GO-Y199, and GO-Y200 against malignant pleural mesothelioma cell lines NCI-H226 and MSTO211H was measured. The method is as described above. For comparison, the IC50 of cisplatin (CDDP), a cytocidal anticancer agent, is also indicated.

[4] = tested on: apoptosis-related protein; assay: Apoptosis-related protein, M30 Apotosense ELISA; type: cell-based; details: control 360 U/L
Protocol: as §1
The influence of GO-Y199 on Caspase 3 was investigated. The method is as described above. Immunohistochemistry was performed with an anti-Caspase 3 antibody. Quantification of apoptosis-related protein was performed using M30 Apotosense ELISA (PEVIVA). The upper part of FIG. 20 indicates photographs of the control group and the GO-Y199 (2 μM)-added group after 24 hours. […]

[5] = tested on: breast cancer cell line HCC1395; assay: Cell growth inhibitory activity, HCC1395; type: cell-based
Protocol: [The source words this procedure for another cell line and reports this cell line under the same test.] as §2, §3

[6] = tested on: pancreatic cancer cell line Panc-1; assay: Cell growth inhibitory activity, Panc-1; type: cell-based; details: Table 7
Protocol: [The source words this procedure for another cell line and reports this cell line under the same test.] as §2, §3

β-catenin = assay: Influence on β-catenin, ELISA; type: cell-based; details: control 11.5±2.3
Protocol: as §1
The influence of GO-Y199 on β-catenin was investigated. The method is as described above. Immunohistochemistry was performed with an anti-β-catenin antibody. Protein quantification was performed using an ELISA plate (proteintech). FIG. 17 indicates photographs of the control group and the GO-Y199 (2 μM)-added group after 24 hours. […]

[7] = tested on: malignant melanoma cell line G361; assay: Cell growth inhibitory activity, G361; type: cell-based; details: Table 9
Protocol: [The source words this procedure for another cell line and reports this cell line under the same test.] as §2, §3

NF-kB (p65) = assay: Influence on NF-kB, immunohistochemistry in HCT116; type: cell-based; details: 2 μM, 24 hours, control 96.8±1.1%
Protocol: as §1

[8] = tested on: gastric cancer cell line H-111-TC; assay: Cell growth inhibitory activity, H-111-TC; type: cell-based; details: Table 6
Protocol: as §2, with “percentage. In Table 3, the turbidities of the compounds are also indicated.” for “percentage.”
The cell growth inhibitory activity (IC50) of each of curcumin, GO-Y199, and GO-Y206 against the colorectal cancer cell lines DLD-1 and HCT116 and the gastric cancer cell lines KATO III and H-111-TC was measured. The method is as described above. FIG. 8 indicates the results of cell growth inhibitory activity of these compounds against various cancer cell lines.

COCOc1cc(/C=C/C(=O)CC(SCCOCCOCCOCCOCc2cn([C@@H]3O[C@H](CO)[C@@H](O[C@@H]4O[C@H](CO)[C@H](O)[C@H](O)[C@H]4O)[C@H](O)[C@H]3O)nn2)c2cc(OCOC)cc(OCOC)c2)cc(OCOC)c1 (some centres unmarked) [GO-Y199]
fatty acid synthetase inhibitory effect (fatty acid synthetase): significant fatty acid synthetase inhibitory effect | IC50 ([1]; Table 4, 72 hours): 1.05 µM | GO-Y199 vs GO-Y030 (IC50 comparison), HCC38 ([1]; Table 5, ratio of IC50): 0.58 | IC50 [2]: 0.75 µM | Turbidity/μm (Turbidity measurement; Table 1, average turbidity corrected for final concentration (1.7-170 μm, per compound)): 0.00041 NTU/μM | Relative Value (turbidity) (Turbidity measurement; Table 1, turbidity/μm relative to curcumin = 1): 0.0014 | Turbidity (Relative Value) (Turbidity measurement; Table 3, relative to curcumin = 1): 0.0014 | Ave Turbidity (NTU) (Turbidity measurement; final conc. 170 μm in DDW): 0.07 ± 0.05 NTU | appearance of solution (Turbidity measurement; final concentration 50 μM in distilled water or DMEM with 10% fetal bovine serum, from DMSO): clear | IC50 [3]: 2.4 µM | apoptosis-related protein activity (M30) ([4]; 2 μM): 1,830 U/L | apoptosis-related protein activity (M30) ([4]; 5 μM): 2,050 U/L | IC50 ([5]; Table 4, 72 hours): 0.72 µM | GO-Y199 vs GO-Y030 (IC50 comparison), HCC1395 ([5]; Table 5, ratio of IC50): 0.34 | IC50 [6]: 0.95 µM | relative expression level of β-catenin (β-catenin; 2 μM): 2.8±0.8 | relative expression level of β-catenin (β-catenin; 5 μM): 3.9±1.1 | IC50 [7]: 1.4 µM | proportion of cells expressing NF-kB (p65) (NF-kB (p65)): 69.4±12.4% | IC50 [8]: 2.9 µM
